Where two headings read alike, the source gives them in different places.
Legend:
VEEV nsP1 [1] = molecular target: T1, VEEV nsP1 (Venezuelan equine encephalitis virus, UniProt P36328); test: biochemical; type: biochemical
VEEV nsP1 [2] = molecular target: T1, VEEV nsP1; test: biochemical
CHIKV strain 899 [3] = details: cited from earlier work
[4] = test system: CHIKV pseudoparticles (CHIKVpp); type: cell-based, Chikungunya virus
CHIKV strain 899 [5] = test: CPE reduction antiviral assay, CHIKV 899 in Vero A cells (MTS/PMS); type: cell-based; details: Chikungunya virus
[6] = test system: MADTP-314res CHIKV 899 variant; test: microbe, parasite or virus in culture; type: cell-based, Chikungunya virus; details: for EC50: Chikungunya virus, read-out: EC50 MADTP-314res variant 3 (resistance selection)
CHIKV [7] = test: Time-of-addition study, CHIKV RNA reduction; type: cell-based, Chikungunya virus; details: for reduction in CHIKV RNA: added 6 h post infection, assessed at 24 h post infection
CHIKV [8] = details: cited from earlier work
CHIKV [9] = details: cited from earlier work; remark: listed apart in the source
[10] = test system: CHIKV Venturini (Italy 2008); test: Viral RNA reduction (qRT-PCR) antiviral assay in Vero E6 cells; type: cell-based; details: Chikungunya virus, Vero C1008, read-out: EC50, in vitro antiviral activity against CHIKV Venturini (Italy 2008)
CHIKV Congo 95 (2011) = test: as above; type: cell-based; details: Chikungunya virus, Vero C1008, read-out: EC50, in vitro antiviral activity against CHIKV Congo 95 (2011)
VEEV TC83 = test: microbe, parasite or virus in culture; type: cell-based; details: Venezuelan equine encephalitis virus, Vero C1008, read-out: EC50, in vitro antiviral activity against VEEV TC83
WT CHIKV LS3 = test: microbe, parasite or virus in culture; type: cell-based, Chikungunya virus; details: for EC50: Chikungunya virus, Vero C1008, read-out: EC50 WT LS3 (reverse genetics)
in vitro = details: African green monkey
Vero cells = details: cited from earlier work
CHIKV [11] = details: clinical studies; cited from earlier work
[12] = test system: translation of incoming capped CHIKV RNA; type: cell-based, Chikungunya virus; details: 250 μM
CHIKV RNA synthesis = test: Metabolic labeling with 3H-uridine of CHIKV RNA in infected Vero E6 cells; type: cell-based, Chikungunya virus; details: 50–250 μM
[13] = molecular target: CHIKV replication/transcription complexes (RTCs) (Chikungunya virus, UniProt Q8JUX6); test: In vitro RNA synthesis assay with isolated CHIKV replication/transcription complexes (32P-CTP incorporation); type: biochemical; details: 250 μM
[14] = read-out: EC50 WT 899 (resistance selection)
[15] = 120 h, read-out: EC50, in vitro antiviral activity against CHIKV 899 (lab)

T1 sequence (P36328 1-535 limits assumed): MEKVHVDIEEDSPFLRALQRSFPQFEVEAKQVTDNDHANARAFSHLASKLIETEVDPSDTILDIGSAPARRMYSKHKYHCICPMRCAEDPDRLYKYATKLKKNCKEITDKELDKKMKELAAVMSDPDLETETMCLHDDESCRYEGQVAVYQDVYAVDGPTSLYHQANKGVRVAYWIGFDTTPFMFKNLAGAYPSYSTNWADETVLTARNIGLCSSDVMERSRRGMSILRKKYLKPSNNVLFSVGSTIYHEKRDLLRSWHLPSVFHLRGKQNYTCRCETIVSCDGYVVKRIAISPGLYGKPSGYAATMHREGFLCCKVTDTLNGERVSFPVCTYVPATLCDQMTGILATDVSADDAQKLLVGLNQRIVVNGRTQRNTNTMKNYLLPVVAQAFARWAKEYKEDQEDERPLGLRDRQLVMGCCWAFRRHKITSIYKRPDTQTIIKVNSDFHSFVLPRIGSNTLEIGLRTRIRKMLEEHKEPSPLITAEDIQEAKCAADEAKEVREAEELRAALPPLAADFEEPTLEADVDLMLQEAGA
CHIKV replication/transcription complexes (RTCs), sequence (Q8JUX6 1864-2474 limits assumed): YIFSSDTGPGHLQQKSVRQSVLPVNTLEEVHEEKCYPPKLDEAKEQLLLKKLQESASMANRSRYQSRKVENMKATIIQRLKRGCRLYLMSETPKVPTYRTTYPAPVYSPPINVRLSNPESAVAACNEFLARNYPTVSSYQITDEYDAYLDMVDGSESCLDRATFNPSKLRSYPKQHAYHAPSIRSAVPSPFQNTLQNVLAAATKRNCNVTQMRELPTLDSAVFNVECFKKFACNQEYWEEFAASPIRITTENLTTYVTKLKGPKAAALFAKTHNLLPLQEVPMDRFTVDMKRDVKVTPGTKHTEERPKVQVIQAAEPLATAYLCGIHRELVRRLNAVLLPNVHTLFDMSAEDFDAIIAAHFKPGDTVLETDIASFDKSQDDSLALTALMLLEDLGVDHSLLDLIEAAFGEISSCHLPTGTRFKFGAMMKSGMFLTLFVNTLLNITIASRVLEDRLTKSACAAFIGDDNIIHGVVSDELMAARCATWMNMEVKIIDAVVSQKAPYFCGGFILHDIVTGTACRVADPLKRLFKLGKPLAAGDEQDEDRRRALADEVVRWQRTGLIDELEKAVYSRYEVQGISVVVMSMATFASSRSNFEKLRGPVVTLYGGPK
CHIKV replication/transcription complexes (RTCs), sequence (Q8JUX6 1-535 partner limits assumed): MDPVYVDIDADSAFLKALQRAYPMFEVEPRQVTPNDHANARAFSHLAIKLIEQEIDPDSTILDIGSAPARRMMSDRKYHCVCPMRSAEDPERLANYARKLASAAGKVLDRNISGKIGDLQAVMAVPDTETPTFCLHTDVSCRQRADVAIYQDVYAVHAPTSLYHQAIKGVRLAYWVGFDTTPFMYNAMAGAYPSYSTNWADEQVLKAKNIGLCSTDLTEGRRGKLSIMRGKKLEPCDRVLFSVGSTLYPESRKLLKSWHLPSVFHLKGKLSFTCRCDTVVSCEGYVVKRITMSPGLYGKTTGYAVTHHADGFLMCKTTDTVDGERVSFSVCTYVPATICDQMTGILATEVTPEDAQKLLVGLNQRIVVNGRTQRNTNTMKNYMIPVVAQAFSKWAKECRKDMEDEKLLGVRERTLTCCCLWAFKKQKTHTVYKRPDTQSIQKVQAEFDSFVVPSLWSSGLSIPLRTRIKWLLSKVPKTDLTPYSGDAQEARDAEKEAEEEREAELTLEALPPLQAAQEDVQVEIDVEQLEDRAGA
CHIKV replication/transcription complexes (RTCs), sequence (Q8JUX6 536-1333 partner limits assumed): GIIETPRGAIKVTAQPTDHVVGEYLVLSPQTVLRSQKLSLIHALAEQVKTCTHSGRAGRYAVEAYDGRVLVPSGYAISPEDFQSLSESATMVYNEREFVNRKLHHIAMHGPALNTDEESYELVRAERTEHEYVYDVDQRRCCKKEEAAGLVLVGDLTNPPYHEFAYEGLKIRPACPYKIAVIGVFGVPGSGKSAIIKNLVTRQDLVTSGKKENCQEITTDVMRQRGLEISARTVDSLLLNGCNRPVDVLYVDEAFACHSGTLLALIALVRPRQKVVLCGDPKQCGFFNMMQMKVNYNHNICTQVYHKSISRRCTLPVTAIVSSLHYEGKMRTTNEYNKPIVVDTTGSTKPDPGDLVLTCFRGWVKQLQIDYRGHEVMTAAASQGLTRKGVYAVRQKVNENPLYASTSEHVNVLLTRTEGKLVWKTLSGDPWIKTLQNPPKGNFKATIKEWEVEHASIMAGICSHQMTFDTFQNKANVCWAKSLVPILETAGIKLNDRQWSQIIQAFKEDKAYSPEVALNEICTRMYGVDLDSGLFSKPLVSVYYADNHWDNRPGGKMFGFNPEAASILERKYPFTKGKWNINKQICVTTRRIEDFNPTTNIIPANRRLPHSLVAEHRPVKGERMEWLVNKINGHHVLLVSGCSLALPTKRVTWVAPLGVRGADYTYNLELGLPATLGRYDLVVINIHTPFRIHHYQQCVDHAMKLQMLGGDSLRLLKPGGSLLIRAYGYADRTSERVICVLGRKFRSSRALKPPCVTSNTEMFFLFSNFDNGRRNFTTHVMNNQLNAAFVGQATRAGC

For `CCCOc1ccc(-n2nnc3c(=O)[nH]c(C)nc32)cc1` [MADTP-346], the “GT activity of VEEV nsP1 (formation of m7GMP-nsP1 complex)” value (VEEV nsP1 [1]) is listed as “did not inhibit the GT activity”, the IC50 (VEEV nsP1 [2]) is listed as > 1 mM and the “anti-CHIKV activity in cell culture” value (CHIKV strain 899 [3]) is listed as “devoid of anti-CHIKV activity”.

With `CCOC(=O)c1c(CSc2ccccc2)n(C)c2cc(Br)c(O)c(CN(C)C)c12` [arbidol] the “entry of CHIKV pseudoparticles into the host cell” value (shortened to “entry”) [4] was “inhibited CHIKVpp entry in a dose-dependent manner”.

In the case of `NC(=O)c1nc(F)c[nH]c1=O` [T-705, reference compound], the EC50 (CHIKV strain 899 [5]; [14]) is reported as 20 ± 2.7 µM, the “cross-resistance of MADTP-314-resistant variants” value [6] is reported as “No cross-resistance” and the EC50 [6] is reported as 34 ± 5.7 µM. The “reduction in CHIKV RNA” value (CHIKV [7]) was 1.0 log10, the “anti-CHIKV activity in vitro” value (CHIKV [8]) was “exerts anti-CHIKV activity” and the “anti-CHIKV activity in a mouse model” value (CHIKV [9]) was “exerts anti-CHIKV activity”.

In the case of `CCc1nc2c(nnn2-c2cccc(OC(C)C)c2)c(=O)[nH]1` [MADTP-372, 5-ethyl-3-(3-isopropoxyphenyl)-3H-[1,2,3]triazolo[4,5-d]-pyrimidin-7(6H)-one], the EC50 (CHIKV strain 899 [5]; [15]) is reported as 2.6 ± 1 µM, the EC50 [10] is reported as 1.4 ± 0.01 µM and the EC50 (CHIKV Congo 95 (2011)) is reported as 750 ± 400 nM. For the same compound, the EC50 (VEEV TC83) was 6.8 µM, the EC50 [6] was 255 ± 16 µM and the EC50 (WT CHIKV LS3) was 4.9 ± 0.6 µM. For the same compound, the “GT activity of VEEV nsP1 (formation of m7GMP-nsP1 complex)” value (VEEV nsP1 [1]) was “inhibited the GT activity of VEEV nsP1 in a concentration-dependent manner”, the IC50 (VEEV nsP1 [1]) was 10 ± 0.3 µM and the IC50 (VEEV nsP1 [2]) was > 1 mM. For the same compound, the CC50 (in vitro) was > 668 µM and the CC50 (Vero cells) was > 400 µM.

In the case of `CCc1nc2c(nnn2-c2cccc(C(C)=O)c2)c(=O)[nH]1` [MADTP-393], the EC50 (CHIKV strain 899 [5]; [15]) is reported as 18 ± 6.4 µM, the EC50 [10] is reported as 8.2 ± 2.2 µM and the EC50 (CHIKV Congo 95 (2011)) is reported as 1400 ± 300 nM. For the same compound, the EC50 (VEEV TC83) was 35 ± 10 µM, the EC50 [6] was 193 ± 14 µM and the EC50 (WT CHIKV LS3) was 15 ± 0.8 µM. It also gave a CC50 (in vitro) of 57 µM.

For `CCN(CC)CCCC(C)Nc1ccnc2cc(Cl)ccc12` (stereo not drawn) [Chloroquine], the EC50 (CHIKV strain 899 [5]; [14]) was 18 ± 11 µM, the “cross-resistance of MADTP-314-resistant variants” value [6] was “No cross-resistance” and the EC50 [6] was 20 ± 4.7 µM. For the same compound, the “reduction of CHIKV RNA” value (CHIKV [7]; added 2 h before infection) was 2 log10, the “protective activity in time-of-addition” value (CHIKV [7]; added at time points later than 1 h p.i.) was “entirely lost its protective activity” and the “entry” value [4] was “inhibited CHIKVpp entry in a dose-dependent manner”. For the same compound, the “effect on CHIKV replication in vitro” value (CHIKV [8]) was “dose- and time-dependent inhibitory effect” and the “efficacy in infected patients” value (CHIKV [11]) was “failed to prove its efficacy”.

For `CC(=O)c1cccc(-n2nnc3c(=O)[nH]c(C)nc32)c1` [MADTP-314, 3-(3′-acetylphenyl)-5-methyl-3H-[1,2,3]triazolo[4,5-d]pyrimidin-7(6H)-one], the EC50 (CHIKV strain 899 [5]; [15]) was 26 ± 11 µM, the EC50 [10] was 26 ± 2 µM and the EC50 (CHIKV Congo 95 (2011)) was 6400 ± 100 nM. The EC50 (VEEV TC83) was > 40 µM, the “fold less sensitive, MADTP-314-resistant variants vs wild-type” value [6] was ~ 11 fold and the EC50 [6] was 283 ± 45 µM. For the same compound, the “fold less sensitive, CHIKV LS3 vs CHIKV 899” value (WT CHIKV LS3) was 1.5 fold, the EC50 (WT CHIKV LS3) was 40 ± 5 µM and the “reduction in CHIKV RNA” value (CHIKV [7]) was 1.3 log10. The “entry” value [4] was “not able to block the entry”, the “luciferase activity (translation of replication-deficient CHIKV RNA)” value [12] was “comparable to that in untreated control cells” and the “CHIKV RNA synthesis (3H-uridine incorporation)” value (CHIKV RNA synthesis) was “did not inhibit CHIKV RNA synthesis”. The “incorporation of 32P-CTP into CHIKV RNA by isolated RTCs” value [13] was “did not inhibit the incorporation”, the IC50 (VEEV nsP1 [2]) was > 1 mM and the CC50 (in vitro) was > 743 µM.

From paper PMC4992889, “The viral capping enzyme nsP1: a novel target for the inhibition of chikungunya virus infection” (Scientific Reports, 2016)
